In patent US20260166065A1 (priority 2023, published 2026):

Target: PA-IL (lectin A, Lec A) (Pseudomonas aeruginosa, UniProt Q05097)
Experiment: Lectin histochemistry: D-galactose blocking of biotinylated PA-IL binding to human respiratory epithelia, in relation to storage time of the sugar solution
Conditions: for PA-IL lectin binding at the cilia of human respiratory epithelia in presence of D-galactose: 5 μg/ml PA-IL
Protocol: Tissue preparation and lectin histological staining has been described (Schreiber et al. (2014) Anticancer Res. 34 (12): 7045-53). Five μm thick sections of human airway epithelium were applied to Adhesion Micro Slides (Histo Bond®; Marienfeld GmbH, Lauda-Königshofen Germany). Slides were deparaffinized and rehydrated through a series of graded ethanol to distilled water. […] Deparaffinized sections were briefly incubated in lectin buffer (LB) consisting of tris-buffered saline (TBS contained Trizma Base, 50 mM Tris; Sigma, Steinheim, Germany), sodium chloride (150 mM; J. T. Baker, Deventer, the Netherlands) and hydrochloric acid (Merck, Darmstadt, Germany) in distilled water (adjusted to pH 7.6) with addition of 1% MgCl2 and 1% CaCl2) (Merck, Darmstadt Germany). Sections were then treated with 0.1% trypsin (Biochrom KG, Berlin, Germany) dissolved in LB and incubated for 10 min at 37° C. To stop the digestion of the sections with trypsin, the sections were washed in running tap water for 5 min. […] This step was followed by three washes (5 min each) in TBS. Afterwards the sections were incubated with alkaline phosphatase streptavidin complex (Vectastain® ABC-Kit; Vector Laboratories) in a humid chamber for 30 min. After final three rinsings (5 min each) in TBS, sections were transferred into the visualizing mixture containing naphthol-AS-biphosphate, hexatozised new fuchsin, dimethylformamide and tween 20 (all from Sigma-Aldrich Chemie, Darmstadt, Germany) applied in the dark for 20 min to visualize enzyme reactivity. To stop the enzyme reaction, the sections were washed in running tap water (7 min) and were then transferred into distilled water (2 min). Counterstaining was performed using Mayer's hemalum (Merck). The sections were dehydrated and subsequently covered using a resinous permanent mounting medium (Eukitt, Kindler GmbH, Freiburg, Germany). Slides were first evaluated using a ZEISS Axiophot 2 microscope (Carl Zeiss, Jena, Germany). Digital images were obtained with a ZEISS Axio Scan Z1 slide scanner equipped with a ZEISS EC Plan-Neofluar 20×/0.50 Pol M27 objective (Carl Zeiss, Jena, Germany) and a Hitachi HV-F20SCL camera with 1600×1200 pixels (Hitachi Kokusai Electric America Ltd., New York, USA). For image acquisition ZEISS ZEN 2.3 software was used (Carl Zeiss, Jena, Germany). Images were further processed with netScope Viewer software (Net-Base Software, Freiburg, Germany).
For the PA-IL blocking experiments, 10 μg/ml PA-IL solution dissolved in LB was incubated 1:1 with a freshly prepared D-galactose solution (Merck, Darmstadt) for 30 min resulting in a final 5 μg/ml PA-IL solution before applying the mixture to the sections. The final concentration of D-galactose in solution ranged from 0.3 mM to 0.0375 mM D-galactose.
To analyze the loss of D-galactose activity to block PA-IL tissue binding in relation to storage time in an aqueous solution, D-galactose was dissolved in water and then stored for different durations (for 0, 40, 80, 160, 320 minutes as well as 12 and 24 h). After storage D-galactose was mixed with the PA-IL solution and used to incubate human respiratory epithelial tissue samples as described previously.

PA-IL (lectin A, Lec A), sequence (Q05097 whole entry): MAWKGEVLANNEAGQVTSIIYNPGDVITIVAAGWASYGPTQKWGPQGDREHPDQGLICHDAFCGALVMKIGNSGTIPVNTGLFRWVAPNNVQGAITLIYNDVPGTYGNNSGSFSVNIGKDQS

## O=C[C@H](O)[C@@H](O)[C@@H](O)[C@H](O)CO [D-galactose]
0.0375 mM D-galactose stored 80 minutes in water, FIG. 8
  PA-IL lectin binding at the cilia of human respiratory epithelia in presence of D-galactose: significantly reduced, but not completely abolished
After 80 minutes storage time in aqueous solution
  PA-IL blocking activity of aqueous D-galactose solution: nearly abolished
Freshly dissolved 0.0375 mM D-galactose, time point 0, FIG. 7
  PA-IL lectin binding at the cilia of human respiratory epithelia in presence of D-galactose: abolished
Freshly prepared solution
  PA-IL blocking efficacy of aqueous D-galactose solution: significant blocking activity
Storage in aqueous solution
  period of storage in aqueous solution over which PA-IL blocking efficacy is lost: approximately 80 minutes
